Data reported in US20250304623A1, “PEPTIDES FOR INTRACELLULAR DELIVERY” (UNIVERSIDADE DE SANTIAGO DE COMPOSTELA, priority 2022, published 2025).

How the values were obtained:
Type in all cases: cell-based
[1] = tested on: HepG2 cells expressing EGFP; assay: EGFP-targeting siRNA delivery (GFP silencing vs siMOCK), HepG2
Summary of the method: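 After 72 h, a plate reader measured EGFP fluorescence in HepG2 EGFP cells transfected with amphiphile/siRNA complexes (30 nM siGFP). Silencing was expressed as percent fluorescence decrease relative to cells given non-targeting siMOCK, with untreated-cell background subtracted. Triplicate means were reported, and Lipofectamine RNAiMAX served as a comparison.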

[2] = tested on: A549 cells expressing EGFP; assay: EGFP-targeting siRNA delivery (GFP silencing vs siMOCK), A549; settings: A549 cells
[3] = tested on: ARPE19 cells expressing EGFP; assay: Cas9-RNP delivery against EGFP (gene editing, plate reader), ARPE19
Summary of the method: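 EGFP-expressing cells, generated by stable transfection with EGFP pDNA and G-418 selection, were plated in 96-well plates at 50,000 cell/mL (100 μL/w) in DMEM+10% FBS+1% Gln-Abt. Cas9-RNP targeting EGFP was complexed with amphiphile for 30 min, applied for 4 h at 50 nM RNP, and EGFP fluorescence was read on a plate reader after 72 h.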

[4] = tested on: ARPE19 cells; assay: RLuc pDNA delivery, robotic library screening, ARPE19
[5] = tested on: ARPE19 cells expressing EGFP; assay: EGFP-targeting siRNA delivery (GFP silencing vs siMOCK), ARPE19
Summary of the method: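 This siRNA delivery assay used stably EGFP-expressing cells seeded a day ahead in 96-well plates. siGFP and amphiphile were combined in DMEM at a constant 30 nM siRNA, incubated 30 min at room temperature, then applied for 4 h before switching to fresh DMEM with 10% FBS. After 72 h, a plate reader measured fluorescence decrease relative to non-targeting siMOCK, subtracting untreated background.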

[6] = tested on: HCT116 cells; assay: RLuc pDNA delivery, robotic library screening, HCT116
[7] = tested on: HepG2 cells expressing EGFP; assay: Cas9-RNP delivery against EGFP (gene editing, plate reader), HepG2
Summary of the method: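 Gene editing in EGFP-expressing HepG2 cells was estimated as the percentage drop in GFP fluorescence, measured in triplicate on a plate reader 72 h after Cas9-RNP delivery with amphiphiles. The RNP was made from annealed crRNA/tracrRNA plus 4 μM Cas9 and complexed with amphiphile before a 4 h exposure. Background from untreated control cells was subtracted.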

Ac-RHLK*RLK*RRLK*RL-NH2 (Ac-RHLKRLKRRLKRL-NH2; not fully specified (residues 4, 7, 11); printed as Ac-RHLK*RLK*RRLK*RL-NH2; also: linker on K* not given here) [13(Arg-His)]
percentage of GFP-silencing relative to siMOCK ([1]; Palmitoleyl, 10 μM): 30% | percentage of GFP-silencing relative to siMOCK ([1]; Petroselinyl, 5 μM): 21% | percentage of GFP-silencing relative to siMOCK ([2]; Dodecanal, 10 μM): 28% | percentage of GFP-silencing relative to siMOCK ([2]; Dodecanal, 15 μM): 18% | percentage of GFP-silencing relative to siMOCK ([2]; Myristoleyl, 10 μM): 17% | percentage of GFP-silencing relative to siMOCK ([2]; Myristoleyl, 15 μM): 5% | percentage of GFP-silencing relative to siMOCK ([2]; Oleyl, 5 μM): 23% | percentage of GFP-silencing relative to siMOCK ([2]; Oleyl, 10 μM): 22% | percentage of GFP-silencing relative to siMOCK ([2]; Oleyl, 15 μM): 15% | percentage of GFP-silencing relative to siMOCK ([2]; Palmitoleyl, 15 μM): 14% | percentage of GFP-silencing relative to siMOCK ([2]; Petroselinyl, 10 μM): 20% | percentage of GFP-silencing relative to siMOCK ([2]; Petroselinyl, 15 μM): 11% | percentage of gene editing, GFP fluorescence intensity decrease (% of reduction) ([3]; Dodecanal, 5 μM): 25% | percentage of gene editing, GFP fluorescence intensity decrease (% of reduction) ([3]; Dodecanal, 15 μM): 21% | percentage of gene editing, GFP fluorescence intensity decrease (% of reduction) ([3]; Myristoleyl, 10 μM): 15% | percentage of gene editing, GFP fluorescence intensity decrease (% of reduction) ([3]; Myristoleyl, 15 μM): 9% | percentage of gene editing, GFP fluorescence intensity decrease (% of reduction) ([3]; Oleyl, 5 μM): 14% | percentage of gene editing, GFP fluorescence intensity decrease (% of reduction) ([3]; Oleyl, 10 μM): −6% | percentage of gene editing, GFP fluorescence intensity decrease (% of reduction) ([3]; Palmitoleyl, 5 μM): 25% | percentage of gene editing, GFP fluorescence intensity decrease (% of reduction) ([3]; Palmitoleyl, 10 μM): −12% | percentage of gene editing, GFP fluorescence intensity decrease (% of reduction) ([3]; Palmitoleyl, 15 μM): 20% | percentage of gene editing, GFP fluorescence intensity decrease (% of reduction) ([3]; Petroselinyl, 15 μM): 15% | mean luminescent intensity (RLuc pDNA) ([4]; Dodecanal, 5 μM): 69520 RLU | mean luminescent intensity (RLuc pDNA) ([4]; Dodecanal, 10 μM): 2762 RLU | mean luminescent intensity (RLuc pDNA) ([4]; Myristoleyl, 5 μM): 17 RLU | mean luminescent intensity (RLuc pDNA) ([4]; Myristoleyl, 10 μM): −31 RLU | mean luminescent intensity (RLuc pDNA) ([4]; Myristoleyl, 15 μM): −11 RLU | mean luminescent intensity (RLuc pDNA) ([4]; Oleyl, 5 μM): 8369 RLU | mean luminescent intensity (RLuc pDNA) ([4]; Oleyl, 10 μM): 2379 RLU | mean luminescent intensity (RLuc pDNA) ([4]; Oleyl, 15 μM): 716 RLU | mean luminescent intensity (RLuc pDNA) ([4]; Palmitoleyl, 5 μM): 67443 RLU | mean luminescent intensity (RLuc pDNA) ([4]; Palmitoleyl, 15 μM): 670 RLU | mean luminescent intensity (RLuc pDNA) ([4]; Petroselinyl, 5 μM): 44329 RLU | mean luminescent intensity (RLuc pDNA) ([4]; Petroselinyl, 10 μM): 2986 RLU | mean luminescent intensity (RLuc pDNA) ([4]; Petroselinyl, 15 μM): 1967 RLU | percentage of GFP-silencing relative to siMOCK ([5]; Dodecanal, 5 μM): 60% | percentage of GFP-silencing relative to siMOCK ([5]; Dodecanal, 10 μM): 54% | percentage of GFP-silencing relative to siMOCK ([5]; Dodecanal, 15 μM): 34% | percentage of GFP-silencing relative to siMOCK ([5]; Myristoleyl, 10 μM): 0% | percentage of GFP-silencing relative to siMOCK ([5]; Myristoleyl, 15 μM): 14% | percentage of GFP-silencing relative to siMOCK ([5]; Oleyl, 10 μM): 29% | percentage of GFP-silencing relative to siMOCK ([5]; Oleyl, 15 μM): 31% | percentage of GFP-silencing relative to siMOCK ([5]; Palmitoleyl, 5 μM): 51% | percentage of GFP-silencing relative to siMOCK ([5]; Palmitoleyl, 10 μM): −6% | percentage of GFP-silencing relative to siMOCK ([5]; Palmitoleyl, 15 μM): 7% | percentage of GFP-silencing relative to siMOCK ([5]; Petroselinyl, 5 μM): 42% | percentage of GFP-silencing relative to siMOCK ([5]; Petroselinyl, 10 μM): 24% | percentage of GFP-silencing relative to siMOCK ([5]; Petroselinyl, 15 μM): 26% | mean luminescent intensity (RLuc pDNA) ([6]; Dodecanal, 5 μM): 237160 RLU | mean luminescent intensity (RLuc pDNA) ([6]; Dodecanal, 10 μM): 20219 RLU | mean luminescent intensity (RLuc pDNA) ([6]; Dodecanal, 15 μM): 2518 RLU | mean luminescent intensity (RLuc pDNA) ([6]; Myristoleyl, 15 μM): −246 RLU | mean luminescent intensity (RLuc pDNA) ([6]; Oleyl, 5 μM): 18755 RLU | mean luminescent intensity (RLuc pDNA) ([6]; Oleyl, 10 μM): 2608 RLU | mean luminescent intensity (RLuc pDNA) ([6]; Palmitoleyl, 5 μM): 244732 RLU | mean luminescent intensity (RLuc pDNA) ([6]; Petroselinyl, 5 μM): 105576 RLU | mean luminescent intensity (RLuc pDNA) ([6]; Petroselinyl, 15 μM): 4534 RLU | percentage of gene editing, GFP fluorescence intensity decrease (% of reduction) ([7]; Dodecanal, 5 μM): −31% | percentage of gene editing, GFP fluorescence intensity decrease (% of reduction) ([7]; Dodecanal, 10 μM): −10% | percentage of gene editing, GFP fluorescence intensity decrease (% of reduction) ([7]; Dodecanal, 15 μM): 14% | percentage of gene editing, GFP fluorescence intensity decrease (% of reduction) ([7]; Myristoleyl, 5 μM): 10% | percentage of gene editing, GFP fluorescence intensity decrease (% of reduction) ([7]; Myristoleyl, 10 μM): 33% | percentage of gene editing, GFP fluorescence intensity decrease (% of reduction) ([7]; Oleyl, 10 μM): −4% | percentage of gene editing, GFP fluorescence intensity decrease (% of reduction) ([7]; Oleyl, 15 μM): 15% | percentage of gene editing, GFP fluorescence intensity decrease (% of reduction) ([7]; Palmitoleyl, 5 μM): −8% | percentage of gene editing, GFP fluorescence intensity decrease (% of reduction) ([7]; Palmitoleyl, 10 μM): 26% | percentage of gene editing, GFP fluorescence intensity decrease (% of reduction) ([7]; Palmitoleyl, 15 μM): 7% | percentage of gene editing, GFP fluorescence intensity decrease (% of reduction) ([7]; Petroselinyl, 5 μM): −27%
